In patent US12655127B2, “Fused ring compound as Wee-1 inhibitor” (WIGEN BIOMEDICINE TECHNOLOGY (SHANGHAI) CO., LTD., priority 2021, dated 2026):

Biological target: recombinant protein Wee-1 (Homo sapiens, UniProt P30291)
Experiment: Inhibition of enzymatic activity of recombinant protein Wee-1 (HTRF)
Assay type: biochemical
Experimental: The inhibitory effect of the compounds on the enzyme activity of recombinant protein Wee-1 was determined by HTRF. The procedures are as follows:
After DMSO or serially diluted compounds (up to 200 nM, 1:5 serially diluted) and recombinant proteins were co-incubated in a kinase buffer at 37° C. for 30 min Fluorescein-PolyGAT and ATP were added, and then the reaction was started by the addition of a substrate. After incubation at room temperature for 90 min, an antibody and a detection solution were added, and after further incubation at room temperature for 60 min, fluorescence values were detected (excitation wavelength: 340 nm, emission wavelengths: 495 and 520 nm). The 520 nm/495 nm fluorescence intensity ratio value was calculated, and compared with that of the DMSO group, and then the inhibition percentages and IC50 values of the compounds were calculated.

Chain of recombinant protein Wee-1 (P30291 whole entry): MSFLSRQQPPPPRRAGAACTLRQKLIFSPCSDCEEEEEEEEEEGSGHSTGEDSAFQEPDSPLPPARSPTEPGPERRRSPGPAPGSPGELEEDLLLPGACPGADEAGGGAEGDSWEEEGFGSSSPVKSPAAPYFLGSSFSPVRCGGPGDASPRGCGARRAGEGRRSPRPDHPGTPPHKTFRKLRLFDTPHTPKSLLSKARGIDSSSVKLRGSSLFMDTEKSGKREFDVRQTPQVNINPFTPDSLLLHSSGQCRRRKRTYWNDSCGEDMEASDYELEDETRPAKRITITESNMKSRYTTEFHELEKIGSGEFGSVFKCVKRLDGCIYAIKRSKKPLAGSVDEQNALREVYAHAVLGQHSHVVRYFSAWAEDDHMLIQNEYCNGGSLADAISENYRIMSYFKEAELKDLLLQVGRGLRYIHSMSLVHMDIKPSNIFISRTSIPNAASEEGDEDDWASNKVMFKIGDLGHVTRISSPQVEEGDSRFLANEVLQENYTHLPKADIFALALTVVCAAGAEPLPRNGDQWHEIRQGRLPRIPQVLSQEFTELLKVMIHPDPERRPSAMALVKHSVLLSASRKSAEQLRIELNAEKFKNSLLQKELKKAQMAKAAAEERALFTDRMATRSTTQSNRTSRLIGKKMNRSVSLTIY

| SMILES | IC50 |
| --- | --- |
| CN1Cc2cc(Nc3ncc(C#N)c(Nc4cccc(P(C)(C)=O)n4)n3)cc3c2[C@H](CCC3)C1 (single isomer, unassigned) [Compound 138] | ≤ 10 nM |
| CN1Cc2cc(Nc3ncc(C#N)c(Nc4cccc(P(C)(C)=O)n4)n3)cc3c2[C@@H](CCC3)C1 (single isomer, unassigned) [Compound 139] | ≤ 10 nM |
| CCN1Cc2cc(Nc3ncc(C#N)c(Nc4cccc(N=S(C)(C)=O)n4)n3)cc3c2C(CCC3)C1 (stereo not drawn) [Compound 7] | ≤ 10 nM |
| CCN1Cc2cc(Nc3ncc(C#N)c(Nc4cccc(N=S(C)(C)=O)n4)n3)cc3c2[C@H](CCC3)C1 [Compound 8] | ≤ 10 nM |
| CCN1Cc2cc(Nc3ncc(C#N)c(Nc4cccc(N=S(C)(C)=O)n4)n3)cc3c2[C@@H](CCC3)C1 [Compound 9] | ≤ 10 nM |
| CC(C)N1Cc2cc(Nc3ncc(C#N)c(Nc4cccc(N=S(C)(C)=O)n4)n3)cc3c2C(CCC3)C1 (stereo not drawn) [Compound 10] | ≤ 10 nM |
| CC(C)N1Cc2cc(Nc3ncc(C#N)c(Nc4cccc(N=S(C)(C)=O)n4)n3)cc3c2[C@H](CCC3)C1 [Compound 11] | ≤ 10 nM |
| CC(C)N1Cc2cc(Nc3ncc(C#N)c(Nc4cccc(N=S(C)(C)=O)n4)n3)cc3c2[C@@H](CCC3)C1 [Compound 12] | ≤ 10 nM |
| CS(C)(=O)=Nc1cccc(Nc2nc(Nc3cc4c5c(c3)CN(C3CC3)CC5CCC4)ncc2C#N)n1 (stereo not drawn) [Compound 13] | ≤ 10 nM |
| CS(C)(=O)=Nc1cccc(Nc2nc(Nc3cc4c5c(c3)CN(C3CC3)C[C@H]5CCC4)ncc2C#N)n1 [Compound 14] | ≤ 10 nM |
| CS(C)(=O)=Nc1cccc(Nc2nc(Nc3cc4c5c(c3)CN(C3CC3)C[C@@H]5CCC4)ncc2C#N)n1 [Compound 15] | ≤ 10 nM |
| CS(C)(=O)=Nc1cccc(Nc2nc(Nc3cc4c5c(c3)CN(CCO)CC5CCC4)ncc2C#N)n1 (stereo not drawn) [Compound 16] | ≤ 10 nM |
| CN(C)CCN1Cc2cc(Nc3ncc(C#N)c(Nc4cccc(N=S(C)(C)=O)n4)n3)cc3c2C(CCC3)C1 (stereo not drawn) [Compound 17] | ≤ 10 nM |
| CS(C)(=O)=Nc1cccc(Nc2nc(Nc3cc4c5c(c3)CN(CC3CC3)CC5CCC4)ncc2C#N)n1 (stereo not drawn) [Compound 18] | ≤ 10 nM |
| CN1CC2CCCc3cc(Nc4ncc(C#N)c(Nc5cccc(N=S(C)(C)=O)n5)n4)cc(c32)C12CC2 (stereo not drawn) [Compound 19] | ≤ 10 nM |
| CN1CC2CCCc3cc(Nc4ncc(C#N)c(Nc5cccc(N=S(C)(C)=O)n5)n4)cc(c32)C1(C)C (stereo not drawn) [Compound 20] | ≤ 10 nM |
| CN1C[C@H]2CCCc3cc(Nc4ncc(C#N)c(Nc5cccc(N=S(C)(C)=O)n5)n4)cc(c32)C1(C)C [Compound 21] | ≤ 10 nM |
| CN1C[C@@H]2CCCc3cc(Nc4ncc(C#N)c(Nc5cccc(N=S(C)(C)=O)n5)n4)cc(c32)C1(C)C [Compound 22] | ≤ 10 nM |
| CN1Cc2cc(Nc3ncc(C#N)c(Nc4cccc(N=S(C)(C)=O)n4)n3)cc3c2C(CCC3)C12CC2 (stereo not drawn) [Compound 23] | ≤ 10 nM |
| CN1Cc2cc(Nc3ncc(C#N)c(Nc4cccc(N=S(C)(C)=O)n4)n3)cc3c2[C@H](CCC3)C1(C)C [Compound 24] | ≤ 10 nM |
| CN1Cc2cc(Nc3ncc(C#N)c(Nc4cccc(N=S(C)(C)=O)n4)n3)cc3c2[C@@H](CCC3)C1(C)C [Compound 25] | ≤ 10 nM |
| CN1Cc2cc(Nc3ncc(C#N)c(Nc4cccc(N=S(C)(C)=O)n4)n3)cc3c2C(C1)CC1(CC1)C3 (stereo not drawn) [Compound 26] | ≤ 10 nM |

| SMILES | IC50 |
| --- | --- |
| CN1Cc2cc(Nc3ncc(C#N)c(Nc4cccc(N=S(C)(C)=O)n4)n3)cc3c2C(C1)CC(C)(C)C3 (stereo not drawn) [Compound 27] | ≤ 10 nM |
| CN1Cc2cc(Nc3ncc(C#N)c(Nc4cccc(N=S(C)(C)=O)n4)n3)cc3c2C(C1)CC(F)(F)C3 (stereo not drawn) [Compound 28] | ≤ 10 nM |
| CN1Cc2cc(Nc3ncc(C#N)c(Nc4cccc(N=S(C)(C)=O)n4)n3)cc3c2C(C1)C1(CC3)CC1 (stereo not drawn) [Compound 29] | ≤ 10 nM |
| CN1Cc2cc(Nc3ncc(C#N)c(Nc4cccc(N=S(C)(C)=O)n4)n3)cc3c2C(C1)C(C)(C)CC3 (stereo not drawn) [Compound 30] | ≤ 10 nM |
| CN1Cc2cc(Nc3ncc(C#N)c(Nc4cccc(N=S(C)(C)=O)n4)n3)cc3c2C(C1)C(F)(F)CC3 (stereo not drawn) [Compound 31] | ≤ 10 nM |
| CN1Cc2cc(Nc3ncc(C#N)c(Nc4cccc(N=S(C)(C)=O)n4)n3)cc3c2C(CCC32CC2)C1 (stereo not drawn) [Compound 32] | ≤ 10 nM |
| CN1Cc2cc(Nc3ncc(C#N)c(Nc4cccc(N=S(C)(C)=O)n4)n3)cc3c2C(CCC3(C)C)C1 (stereo not drawn) [Compound 33] | ≤ 10 nM |
| CN1Cc2cc(Nc3ncc(C#N)c(Nc4cccc(N=S(C)(C)=O)n4)n3)cc3c2C(CCC3(F)F)C1 (stereo not drawn) [Compound 34] | ≤ 10 nM |
| CN1Cc2cc(Nc3ncc(C#N)c(Nc4cccc(N=S(C)(C)=O)n4)n3)cc3c2C(CC=C3)C1 (stereo not drawn) [Compound 35] | ≤ 10 nM |
| CN1Cc2cc(Nc3ncc(C#N)c(Nc4cccc(N=S(C)(C)=O)n4)n3)cc3c2C(C=CC3)C1 (stereo not drawn) [Compound 36] | ≤ 10 nM |
| CN1Cc2cc(Nc3ncc(C#N)c(Nc4cccc(N=S(C)(C)=O)n4)n3)cc3c2C(CC2CC32)C1 (stereo not drawn) [Compound 37] | ≤ 10 nM |
| CN1Cc2cc(Nc3ncc(C#N)c(Nc4cccc(N=S(C)(C)=O)n4)n3)cc3c2C(C1)C1CC1C3 (stereo not drawn) [Compound 38] | ≤ 10 nM |
| CN1Cc2cc(Nc3ncc(C#N)c(Nc4cccc(N=S(C)(C)=O)n4)n3)cc3c2C2(CC2CC3)C1 (stereo not drawn) [Compound 39] | ≤ 10 nM |
| CN1Cc2nc(Nc3ncc(C#N)c(Nc4cccc(N=S(C)(C)=O)n4)n3)cc3c2C(CCC3)C1 (stereo not drawn) [Compound 40] | ≤ 10 nM |
| Cc1c(Nc2ncc(C#N)c(Nc3cccc(N=S(C)(C)=O)n3)n2)cc2c3c1CN(C)CC3CCC2 (stereo not drawn) [Compound 41] | ≤ 10 nM |
| CN1Cc2c3c(cc(Nc4ncc(C#N)c(Nc5cccc(N=S(C)(C)=O)n5)n4)c2C2CC2)CCCC3C1 (stereo not drawn) [Compound 42] | ≤ 10 nM |
| CN1Cc2c(F)c(Nc3ncc(C#N)c(Nc4cccc(N=S(C)(C)=O)n4)n3)cc3c2C(CCC3)C1 (stereo not drawn) [Compound 43] | ≤ 10 nM |
| COc1c(Nc2ncc(C#N)c(Nc3cccc(N=S(C)(C)=O)n3)n2)cc2c3c1CN(C)CC3CCC2 (stereo not drawn) [Compound 44] | ≤ 10 nM |
| CN1Cc2cc(Nc3ncc(C#N)c(Nc4cccc(N=S(C)(C)=O)n4)n3)nc3c2C(CCC3)C1 (stereo not drawn) [Compound 45] | ≤ 10 nM |
| Cc1c(Nc2ncc(C#N)c(Nc3cccc(N=S(C)(C)=O)n3)n2)cc2c3c1CCCC3CN(C)C2 (stereo not drawn) [Compound 46] | ≤ 10 nM |
| CN1Cc2cc(Nc3ncc(C#N)c(Nc4cccc(N=S(C)(C)=O)n4)n3)c(C3CC3)c3c2C(CCC3)C1 (stereo not drawn) [Compound 47] | ≤ 10 nM |
| CN1Cc2cc(Nc3ncc(C#N)c(Nc4cccc(N=S(C)(C)=O)n4)n3)c(F)c3c2C(CCC3)C1 (stereo not drawn) [Compound 48] | ≤ 10 nM |

| SMILES | IC50 |
| --- | --- |
| CN1Cc2cc(Nc3ncc(C#N)c(Nc4cccc(N=S(C)(C)=O)n4)n3)cc3c2[C@H](CC3)C1 [Compound 51] | 10 to 50 nM |
| CN1Cc2cc(Nc3ncc(C#N)c(Nc4cccc(N=S(C)(C)=O)n4)n3)cc3c2[C@@H](CC3)C1 [Compound 52] | 10 to 50 nM |
| CN1Cc2cc(Nc3ncc(C#N)c(Nc4cccc(N=S(C)(C)=O)n4)n3)cc3c2C(C)(CC3)C1 (stereo not drawn) [Compound 53] | 10 to 50 nM |
| CN1Cc2cc(Nc3ncc(C#N)c(Nc4cccc(N=S(C)(C)=O)n4)n3)cc3c2[C@](C)(CC3)C1 [Compound 54] | 10 to 50 nM |
| CN1Cc2cc(Nc3ncc(C#N)c(Nc4cccc(N=S(C)(C)=O)n4)n3)cc3c2[C@@](C)(CC3)C1 [Compound 55] | 10 to 50 nM |
| CN1Cc2cc(Nc3ncc(C#N)c(Nc4cccc(N=S(C)(C)=O)n4)n3)cc3c2C(CCCC3)C1 (stereo not drawn) [Compound 56] | 10 to 50 nM |
| CN1Cc2cc(Nc3ncc(C#N)c(Nc4cccc(N=S(C)(C)=O)n4)n3)cc3c2[C@H](CCCC3)C1 [Compound 57] | ≤ 10 nM |
| CN1Cc2cc(Nc3ncc(C#N)c(Nc4cccc(N=S(C)(C)=O)n4)n3)cc3c2[C@@H](CCCC3)C1 [Compound 58] | ≤ 10 nM |
| CN1Cc2cc(Nc3ncc(C#N)c(Nc4cccc(N=S(C)(C)=O)n4)n3)cc3c2C(C)(CCCC3)C1 (stereo not drawn) [Compound 59] | ≤ 10 nM |
| CN1Cc2cc(Nc3ncc(C#N)c(Nc4cccc(N=S(C)(C)=O)n4)n3)cc3c2[C@](C)(CCCC3)C1 [Compound 60] | ≤ 10 nM |
| CN1Cc2cc(Nc3ncc(C#N)c(Nc4cccc(N=S(C)(C)=O)n4)n3)cc3c2[C@@](C)(CCCC3)C1 [Compound 61] | ≤ 10 nM |
| CN1Cc2cc(Nc3ncc(C#N)c(Nc4cccc(N=S(C)(C)=O)n4)n3)cc3c2C(CCCCC3)C1 (stereo not drawn) [Compound 62] | ≤ 10 nM |
| CN1Cc2cc(Nc3ncc(C#N)c(Nc4cccc(N=S(C)(C)=O)n4)n3)cc3c2C(C)(CCCCC3)C1 (stereo not drawn) [Compound 63] | ≤ 10 nM |
| CN1Cc2cc(Nc3ncc(C#N)c(Nc4cccc(N=S(C)(C)=O)n4)n3)cc3c2C(CCS3)C1 (stereo not drawn) [Compound 65] | ≤ 10 nM |
| CN1Cc2cc(Nc3ncc(C#N)c(Nc4cccc(N=S(C)(C)=O)n4)n3)cc3c2C(COC3)C1 (stereo not drawn) [Compound 66] | ≤ 10 nM |
| CN1Cc2cc(Nc3ncc(C#N)c(Nc4cccc(N=S(C)(C)=O)n4)n3)cc3c2C(CSC3)C1 (stereo not drawn) [Compound 67] | ≤ 10 nM |
| CN1Cc2cc(Nc3ncc(C#N)c(Nc4cccc(N=S(C)(C)=O)n4)n3)cc3c2C(C1)OCC3 (stereo not drawn) [Compound 68] | ≤ 10 nM |
| CN1Cc2cc(Nc3ncc(C#N)c(Nc4cccc(N=S(C)(C)=O)n4)n3)cc3c2C(C1)SCC3 (stereo not drawn) [Compound 69] | ≤ 10 nM |
| CN1Cc2cc(Nc3ncc(C#N)c(Nc4cccc(N=S(C)(C)=O)n4)n3)cc3c2C(CO3)C1 (stereo not drawn) [Compound 70] | ≤ 10 nM |
| CN1Cc2cc(Nc3ncc(C#N)c(Nc4cccc(N=S(C)(C)=O)n4)n3)cc3c2C(CS3)C1 (stereo not drawn) [Compound 71] | ≤ 10 nM |
| CN1Cc2cc(Nc3ncc(C#N)c(Nc4cccc(N=S(C)(C)=O)n4)n3)cc3c2C(C1)OC3 (stereo not drawn) [Compound 72] | ≤ 10 nM |
| CN1Cc2cc(Nc3ncc(C#N)c(Nc4cccc(N=S(C)(C)=O)n4)n3)cc3c2C(C1)SC3 (stereo not drawn) [Compound 73] | ≤ 10 nM |
